{"source": "patent US20230348442A1", "about": "“GALECTIN-3 INHIBITING 2-HYDROXYCYCLOALKANE-1-CARBAMOYL DERIVATIVES” (Idorsia Pharmaceuticals Ltd, priority 2020, published 2023)", "target": "human Gal-3 (hGal-3) (Homo sapiens (Human), UniProt P17931)", "sequence (P17931 whole entry)": "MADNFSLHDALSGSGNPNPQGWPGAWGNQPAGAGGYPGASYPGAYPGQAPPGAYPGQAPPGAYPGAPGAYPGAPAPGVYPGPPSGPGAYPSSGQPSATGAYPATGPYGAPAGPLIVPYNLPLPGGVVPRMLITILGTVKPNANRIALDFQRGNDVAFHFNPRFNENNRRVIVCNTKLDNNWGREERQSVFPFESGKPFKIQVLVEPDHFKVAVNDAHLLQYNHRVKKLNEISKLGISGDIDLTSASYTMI", "experiment": "competitive binding assay: binding of biotinylated hGal-3 to microplate-adsorbed asialofetuin (ASF), spectrophotometric", "conditions": "Activity on hGal-3; mean values of several measurements", "outline": "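Compounds in DMSO dilution series competed with 300-1000 ng/mL biotinylated hGal-3 for asialofetuin adsorbed on the plate (3 h, 4° C). Streptavidin-peroxidase at 80 ng/mL (1 h, 4° C) with ABTS gave a spectrophotometric read-out, and IC50 was reported as the mean of repeat runs.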"}
{"smiles": "CO[C@@H]1[C@@H](n2cc(-c3cc(F)c(C)c(F)c3)nn2)[C@@H](O)[C@@H](CO)O[C@H]1C(=O)N(c1cc(Cl)cc(C#N)c1)[C@@H]1CCC[C@H]1O", "note": "[Example 1.4.4R, (2R,3R,4S,5R,6R)-N-(3-chloro-5-cyanophenyl)-4-(4-(3,5-difluoro-4-methylphenyl)-1H-1,2,3-triazol-1-yl)-5-hydroxy-N-((1R,2R)-2-hydroxycyclopentyl)-6-(hydroxymethyl)-3-methoxytetrahydro-2H-pyran-2-carboxamide]", "values": [{"measurement": "IC50", "value": 0.0748, "unit": "µM"}]}
{"smiles": "CO[C@@H]1[C@@H](n2cc(-c3cc(F)c(F)c(F)c3)nn2)[C@@H](O)[C@@H](CO)O[C@H]1C(=O)N(c1cccc(I)c1)[C@@H]1CCC[C@H]1O", "note": "[Example 1.1.6R, (2R,3R,4S,5R,6R)-5-hydroxy-N-((1R,2R)-2-hydroxycyclopentyl)-6-(hydroxymethyl)-N-(3-iodophenyl)-3-methoxy-4-(4-(3,4,5-trifluorophenyl)-1H-1,2,3-triazol-1-yl)tetrahydro-2H-pyran-2-carboxamide]", "values": [{"measurement": "IC50", "value": 0.261, "unit": "µM"}]}
{"smiles": "CO[C@@H]1[C@@H](n2cc(-c3ccc(Br)c(F)c3F)nn2)[C@@H](O)[C@@H](CO)O[C@H]1C(=O)N(c1cc(Cl)cc(Cl)c1)[C@H]1CCC[C@@H]1O", "note": "[Example 1.12.2, (2R,3R,4S,5R,6R)-4-(4-(4-bromo-2,3-difluorophenyl)-1H-1,2,3-triazol-1-yl)-N-(3,5-dichlorophenyl)-5-hydroxy-N-((1S,2S)-2-hydroxycyclopentyl)-6-(hydroxymethyl)-3-methoxytetrahydro-2H-pyran-2-carboxamide]", "values": [{"measurement": "IC50", "value": 0.0237, "unit": "µM"}]}
{"smiles": "CO[C@@H]1[C@@H](n2cc(-c3cc(F)c(F)c(F)c3)nn2)[C@@H](O)[C@@H](CO)O[C@H]1C(=O)N(c1cc(C)cc(Br)c1)[C@H]1CCC[C@@H]1O", "note": "[Example 1.1.12, (2R,3R,4S,5R,6R)-N-(3-bromo-5-methylphenyl)-5-hydroxy-N-((1S,2S)-2-hydroxycyclopentyl)-6-(hydroxymethyl)-3-methoxy-4-(4-(3,4,5-trifluorophenyl)-1H-1,2,3-triazol-1-yl)tetrahydro-2H-pyran-2-carboxamide]", "values": [{"measurement": "IC50", "value": 0.0347, "unit": "µM"}]}
{"smiles": "CO[C@@H]1[C@@H](n2cc(-c3cc(F)cc(Cl)c3)nn2)[C@@H](O)[C@@H](CO)O[C@H]1C(=O)N(c1cc(Br)cc(C#N)c1)[C@H]1CC[C@@H]1O", "note": "[Example 2.9.5, (2R,3R,4S,5R,6R)-N-(3-bromo-5-cyanophenyl)-4-(4-(3-chloro-5-fluorophenyl)-1H-1,2,3-triazol-1-yl)-5-hydroxy-N-((1S,2S)-2-hydroxycyclobutyl)-6-(hydroxymethyl)-3-methoxytetrahydro-2H-pyran-2-carboxamide]", "values": [{"measurement": "IC50", "value": 0.123, "unit": "µM"}]}
{"smiles": "COc1cc(C#N)cc(N(C(=O)[C@@H]2O[C@H](CO)[C@H](O)[C@H](n3cc(-c4cc(F)cc(Br)c4)nn3)[C@H]2OC)[C@H]2CC[C@@H]2O)c1", "note": "[Example 2.10.9, (2R,3R,4S,5R,6R)-4-(4-(3-bromo-5-fluorophenyl)-1H-1,2,3-triazol-1-yl)-N-(3-cyano-5-methoxyphenyl)-5-hydroxy-N-((1S,2S)-2-hydroxycyclobutyl)-6-(hydroxymethyl)-3-methoxytetrahydro-2H-pyran-2-carboxamide]", "values": [{"measurement": "IC50", "value": 0.224, "unit": "µM"}]}
{"smiles": "CO[C@@H]1[C@@H](n2cc(-c3ccc(C#N)c(F)c3)nn2)[C@@H](O)[C@@H](CO)O[C@H]1C(=O)N(c1cc(C)cc(C#N)c1)[C@@H]1CCC[C@H]1O", "note": "[Example 1.16.8R, (2R,3R,4S,5R,6R)-4-(4-(4-cyano-3-fluorophenyl)-1H-1,2,3-triazol-1-yl)-N-(3-cyano-5-methylphenyl)-5-hydroxy-N-((1R,2R)-2-hydroxycyclopentyl)-6-(hydroxymethyl)-3-methoxytetrahydro-2H-pyran-2-carboxamide]", "values": [{"measurement": "IC50", "value": 1.26, "unit": "µM"}]}
{"smiles": "COc1cc(-c2cn([C@H]3[C@@H](O)[C@@H](CO)O[C@@H](C(=O)N(c4cc(C)cc(Br)c4)[C@H]4CCC[C@@H]4O)[C@@H]3OC)nn2)cc(F)c1F", "note": "[Example 1.3.12, (2R,3R,4S,5R,6R)-N-(3-bromo-5-methylphenyl)-4-(4-(3,4-difluoro-5-methoxyphenyl)-1H-1,2,3-triazol-1-yl)-5-hydroxy-N-((1S,2S)-2-hydroxycyclopentyl)-6-(hydroxymethyl)-3-methoxytetrahydro-2H-pyran-2-carboxamide]", "values": [{"measurement": "IC50", "value": 0.0421, "unit": "µM"}]}
